Laboratory results reported in patent EP0322748B1, “Antibiotic NK86-0279, process for production of the same and application of the same” (NIPPON KAYAKU KABUSHIKI KAISHA, priority 1987, dated 1989).
Converted amounts (≈) assume the structure as drawn.

How the values were obtained:
[1] = tested on: bovine adrenal capillary endothelial cells; test: growth-inhibitory effect on endothelial cells, Coulter counter; format: cell-based; conditions: Bos taurus, Endothelial cell, 72 h, three days after the addition
Experimental: The growth-inhibitory effect of the compound of the present invention on endothelial cells was examined. A 96-well plate was inoculated with bovine adrenal capillary endothelial cells at a ratio of 1 x 10⁴ cells per well. One day after the inoculation, the compound of the present invention was added thereto at various concentrations. Cells in each well were counted with a Coulter counter three days after the addition to thereby evaluate the growth-inhibitory effect of the test compound on the capillary endothelial cells. […] Thus the IC₅₀ of the compound of the present invention on the endothelial cells was 0.0003 µg/ml, showing a strong growth-inhibitory effect.

[2] = tested on: two-spotted spider mite acarids (a Kelthane-resistant species); test: insecticidal action, mortality rate of spider mites; format: in vivo; conditions: Tetranychus urticae, 48 h, Imagos of two-spotted spider mite, after 2 days
Experimental: The insecticidal action of the compound of the present invention was examined by the following method. • (1) An imago of two-spotted spider mite acarids (a Kelthane-resistant species) was used as a test vermin, and the mortality rate thereof was assayed according to an ordinary method (described on page 327 of "Noyaku Seibutsu Kenteiho" edited by Toyoji Hosotsuji). Specifically, a solution of the compound of the present invention in acetone (0.1 %) was added to 0.5 ml of an aqueous sucrose solution (1 %) to have a predetermined concentration. Ten two-spotted spider mite acarids were released in a vessel (200-ml beaker), and the vessel was covered with a paraffin film. The agent solution prepared above was put on the paraffin film, and another praffin film was put thereon. The beaker was allowed to stand in a thermostatic chamber (20 ± 1°C) for a predetermined period of time, and the life and death of the test vermin was investigated. • (2) A larva of mosquito culices (a sensitive species) was used as a test vermin, and the mortality rate thereof was assayed according to an ordinary method (described on page 109 of "Noyaku Jikkenho I, Sacchuzaihen" published by Soft Science, Inc.). Specifically, 10 ml of well water was placed in a vessel (15-ml Schale), and 5 larvae of mosquito culices (the third stage) were released in the vessel. A solution of the compound of the present invention in acetone (0.1 %) was added thereto so as to have a predetermined concentration. The vessel was allowed to stand in a thermostatic chamber (26 ± 1°C) for a predetermined period of time, and the life and death of the test vermin was investigated.

[3] = tested on: mouse pulmonary cancer cells (LL); test: growth-inhibitory effect on mouse pulmonary cancer cells, dye exclusion method; format: cell-based; conditions: 72 h
Experimental: The growth-inhibitory effects of the compound of the present invention on mouse pulmonary cancer cells (LL) and human plumonary cancer cells (PC-3) were examined.
A 96-well plate was inoculated with mouse pulmonary cancer cells at a ratio of 8.0 x 10² cells per well, while another 96-well plate was inoculated with human pulmonary cancer cells at a ratio of 2.5 x 10³ per well. These cells were incubated in an incubator at 37°C under 5 % CO₂ for 24 hours. Then the compound of the present invention was added thereto at various concentrations. Cells in each well were counted by the dye exclusion method three days after the addition to thereby evaluate the growth-inhibitory effect of the test compound on the mouse pulmonary cancer cells (LL) and that on the human pulmonary cancer cells (PC-3).

solubility = format: physicochemical
[4] = tested on: mouse malignant melanoma (B16 melanotic melanoma); test: in-vivo test by intravenous administration against mouse malignant melanoma, tumor volume; parameters: species or system C57BL/6 mouse
Source text: The anti-cancer action of the compound of the present invention against mouse malignant melanoma (B16 melanotic melanoma) was examined. 5 x 10⁵ mouse malignant melanoma cells were inoculated into a subcutaneous portion of the right body side of a 6 week-old male C57BL/6 mouse, and the compound of the present invention was intravenously administered to the mouse in various concentrations every day from the next day or from 7 days after the inoculation once a day for 5 days. On the 11 days after the inoculation, the minor axis and the major axis of the tumor were measured, and the volume of the tumor was determined by using the following equation: (minor axis)² x […]/2 [formula] . Then, the percentage inhibition of proliferation of each tumor with respect to the compound of the present invention was determined from the ratio of the volume of the tumor on the groups of administration of the compound of the present invention relative to that on the control group.

[5] = tested on: human melanoma cells (A375); test: growth-inhibitory effect on human melanoma cells, dye exclusion method; format: cell-based
Experimental: The growth-inhibitory effects of the compound of the present invention on mouse melanoma cells (B16) and human melanoma cells (A375) were examined. A 96-well plate was inoculated with mouse melanoma cells at a ratio of 1.5 x 10³ cells per well, while another 96-well plate was inoculated with human melanoma cells at a ratio of 1.0 x 10³ per well. These cells were incubated in an incubator at 37°C under 5 % CO₂. Then the compound of the present invention was added thereto at various concentrations. Cells in each well were counted by the dye exclusion method 65 hours after the addition to thereby evaluate the growth-inhibitory effect of the test compound on the mouse melanoma cells and that on the human melanoma cells.

## CCC1C=CC=CCC(C)C(O)C(C)(O)C(=O)C(C)C(O)C(C)C(=O)C(C)C(O)C(C)C=CC(=O)OC2C(C)C(CC1)OC1(OC(CC(C)O)C(C)CC1=O)C2CC (centres unmarked) [NK86-0279]
[1]; 0.000128 µg/ml, read-out: Groth-inhibitory ratio
  inhibition at 0.000128 µg/mL: 35.4%
[1]; 0.00064 µg/ml, read-out: Groth-inhibitory ratio
  inhibition at 0.00064 µg/mL: 63.2%
[1]; 0.0032 µg/ml, read-out: Groth-inhibitory ratio
  inhibition at 0.0032 µg/mL: 78.4%
[1]; 0.016 µg/ml, read-out: Groth-inhibitory ratio
  inhibition at 0.016 µg/mL: 89.7%
[1]; endothelial cells, read-out: IC₅₀
  IC50: 0.3 ng/mL (≈ 0.000366 µM)
[2]; 1 ppm
  mortality at 1 ppm: 100%
[2]; 10 ppm
  mortality at 10 ppm: 100%
[2]; 100 ppm
  mortality at 100 ppm: 100%
[3]; mouse pulmonary cancer cells (LL), three days after the addition, read-out: IC₅₀
  IC50: 9.8 ng/mL (≈ 0.012 µM)
[3]; Mus musculus, LL, 0.024 µg/ml, read-out: Growth-inhibitory ratio
  inhibition at 0.024 µg/mL: 30.4%
[3]; Mus musculus, LL, 0.061 µg/ml, read-out: Growth-inhibitory ratio
  inhibition at 0.061 µg/mL: -5.7%
[3]; Mus musculus, LL, 0.098 µg/ml, read-out: Growth-inhibitory ratio
  inhibition at 0.098 µg/mL: 50%
[3]; Mus musculus, LL, 0.39 µg/ml, read-out: Growth-inhibitory ratio
  inhibition at 0.39 µg/mL: 61%
[3]; Mus musculus, LL, 1.56 µg/ml, read-out: Growth-inhibitory ratio
  inhibition at 1.56 µg/mL: 92.1%
[3]; Mus musculus, LL, 6.25 µg/ml, read-out: Growth-inhibitory ratio
  inhibition at 6.25 µg/mL: 114%
[3]; Mus musculus, LL, 25 µg/ml, read-out: Growth-inhibitory ratio
  inhibition at 25 µg/mL: 110%
[3]; Mus musculus, LL, 100 µg/ml, read-out: Growth-inhibitory ratio
  inhibition at 100 µg/mL: 109%
solubility; in hexane
  solubility: hardly soluble
solubility; in methanol, acetone, ethyl acetate and dimethyl sulfoxide
  solubility: soluble
solubility; in organic solvents such as methanol, acetone, ethyl acetate and ethanol
  solubility: soluble
solubility; in water
  solubility: hardly soluble
[4]; 0.05 mg/kg intravenously once a day for 5 days, administered from 7 days after the inoculation
  Growth-inhibitory ratio (tumor volume): 57.4%
[4]; 0.05 mg/kg intravenously once a day for 5 days, administered from the next day of the inoculation
  Growth-inhibitory ratio (tumor volume): 57.0%
[4]; 0.10 mg/kg intravenously once a day for 5 days, administered from 7 days after the inoculation
  Growth-inhibitory ratio (tumor volume): 69.1%
[4]; 0.10 mg/kg intravenously once a day for 5 days, administered from the next day of the inoculation
  Growth-inhibitory ratio (tumor volume): 62.9%
[4]; 0.20 mg/kg intravenously once a day for 5 days, administered from 7 days after the inoculation
  Growth-inhibitory ratio (tumor volume): 76.6%
[4]; 0.20 mg/kg intravenously once a day for 5 days, administered from the next day of the inoculation
  Growth-inhibitory ratio (tumor volume): 56.9%
[4]; 0.40 mg/kg intravenously once a day for 5 days, administered from 7 days after the inoculation
  Growth-inhibitory ratio (tumor volume): 81.9%
[4]; 0.40 mg/kg intravenously once a day for 5 days, administered from the next day of the inoculation
  Growth-inhibitory ratio (tumor volume): 50.5%
[5]; A-375, human melanoma cells (A375), 65 hours after the addition, read-out: IC₅₀
  IC50: 1870 ng/mL (≈ 2.28 µM)
[5]; Homo sapiens, A-375, 65 h, A375, 0.0061 µg/ml, read-out: Growth-inhibitory ratio
  inhibition at 0.0061 µg/mL: 19.7%
[5]; Homo sapiens, A-375, 65 h, A375, 0.024 µg/ml, read-out: Growth-inhibitory ratio
  inhibition at 0.024 µg/mL: 39.7%
[5]; Homo sapiens, A-375, 65 h, A375, 0.098 µg/ml, read-out: Growth-inhibitory ratio
  inhibition at 0.098 µg/mL: 49.4%
[5]; Homo sapiens, A-375, 65 h, A375, 0.39 µg/ml, read-out: Growth-inhibitory ratio
  inhibition at 0.39 µg/mL: 43.7%
[5]; Homo sapiens, A-375, 65 h, A375, 1.56 µg/ml, read-out: Growth-inhibitory ratio
  inhibition at 1.56 µg/mL: 44.4%
[5]; Homo sapiens, A-375, 65 h, A375, 6.25 µg/ml, read-out: Growth-inhibitory ratio
  inhibition at 6.25 µg/mL: 83.6%
[5]; Homo sapiens, A-375, 65 h, A375, 25 µg/ml, read-out: Growth-inhibitory ratio
  inhibition at 25 µg/mL: 105%
[5]; Homo sapiens, A-375, 65 h, A375, 100 µg/ml, read-out: Growth-inhibitory ratio
  inhibition at 100 µg/mL: 105%
